Consider 40 compounds from article PMC5748281 (ACS Omega, 2017).

“Also recorded” adds a separate entry of the source.

System in the first data set: not listed separately
The experiment in a line: Water solubility. The note with it: water / assay medium. The class given is physicochemical.
On to `CCCCCCCCCCCCc1ccc(O)cc1` [4-dodecylphenol], for which the solubility in words entry was “poor water solubility”.

In another data set the test system is yeast cells.
Test: not given
Conditions: cited from earlier work.
In the case of `Cc1ccc(O)c(N)c1` [2-NH2,4-CH3], the “log 1/ICFR50 Obsd” value was 1.07.

With `Oc1ccccc1Br` [2-Br], the “log 1/ICFR50 Obsd” value was 2.08.

With `Oc1cccc(C(F)(F)F)c1` [3-CF3], the “log 1/ICFR50 Obsd” value is given as 2.31.

On to `O=[N+]([O-])c1ccc(O)cc1` [4-NO2, 4-nitrophenol], for which the “log 1/ICFR50 Obsd” value was 2.85.

With `Oc1cccc(Cl)c1Cl` [2,3-Cl2], the “log 1/ICFR50 Obsd” value is listed as 2.68.

As for `Oc1ccc(I)cc1` [4-I], the “log 1/ICFR50 Obsd” value was 2.4.

As for `Oc1c(Cl)cc(Cl)cc1Cl` [2,4,6-Cl3], the “log 1/ICFR50 Obsd” value is given as 3.28.

In the case of `Cc1ccc(O)c([N+](=O)[O-])c1` [4-CH3,2-NO2], the “log 1/ICFR50 Obsd” value is 2.1.

As to `O=C(O)c1ccc(O)cc1` [4-COOH], the “log 1/ICFR50 Obsd” value is 1.75.

On to `Oc1c(Cl)c(Cl)c(Cl)c(Cl)c1Cl` [2,3,4,5,6-Cl5], for which the “log 1/ICFR50 Obsd” value is 3.96.

Consider `Oc1cc(Cl)c(Cl)c(Cl)c1Cl` [2,3,4,5-Cl4], for which the “log 1/ICFR50 Obsd” value is 3.92.

For `Oc1c(Cl)cccc1Cl` [2,6-Cl2], the “log 1/ICFR50 Obsd” value was 2.52.

For the compound `Oc1c(F)c(F)c(F)c(F)c1F` [2,3,4,5,6-F5], the “log 1/ICFR50 Obsd” value is 2.05.

Take `Oc1ccc(Cl)cc1` [4-Cl, 4-chlorophenol]: the “log 1/ICFR50 Obsd” value is given as 2.07.

As for `Oc1ccc(Br)cc1` [4-Br, 4-bromophenol], the “log 1/ICFR50 Obsd” value is listed as 2.4.

`Oc1cc(Cl)c(Cl)c(Cl)c1` [3,4,5-Cl3]: the “log 1/ICFR50 Obsd” value is reported as 3.3.

Regarding `Oc1cc(Cl)c(Cl)cc1Cl` [2,4,5-Cl3], the “log 1/ICFR50 Obsd” value is listed as 3.26.

For `Oc1ccc(Cl)cc1Cl` [2,4-Cl2], the “log 1/ICFR50 Obsd” value was 2.77.

Turning to `CC(C)(C)c1cc(O)cc(C(C)(C)C)c1` [3,5-(C(CH3)3)2], the “log 1/ICFR50 Obsd” value is 3.96.

`Cc1cc(O)cc(C)c1Cl` [4-Cl, 3,5-(CH3)2]: the “log 1/ICFR50 Obsd” value is given as 2.96.

`Oc1c(I)cc(I)cc1I` [2,4,6-(I)3]: the “log 1/ICFR50 Obsd” value is 4.3.

For the compound `COc1cc(O)cc(OC)c1` [3,5-(OCH3)2], the “log 1/ICFR50 Obsd” value was 1.54.

Turning to `Oc1ccccc1` [4-H, phenol], the “log 1/ICFR50 Obsd” value is reported as 1.17.

The test system of the next data set is DNA repair null mutant yeast strains.
Test: not given
The class given is cell-based, Saccharomyces cerevisiae.
Conditions: not given
For `COc1ccc(O)c(C(C)(C)C)c1` [BHA, butylated hydroxy anisole], the “growth phenotype of DNA repair null mutant strains” value is recorded as “growth defects in most of the DNA repair null mutant strains tested; also recorded: some level of growth defect”, the “growth phenotype of Δrad4 strain” value is given as “more resistant” and the “growth phenotype of Δrad14 strain” value is “increased sensitivity”.

In the case of `Cc1cc(C(C)(C)C)c(O)c(C(C)(C)C)c1` [BHT, 2,6-di-tert-butyl-4-methyl-phenol], the “growth phenotype of DNA repair null mutant strains” value was “unresponsive; also recorded: negligible; also recorded: did not cause clear growth defects”.

The subject of the next data set is S. cerevisiae. Put plainly: Growth inhibition assay, 96-well microplate format. Format: cell-based, Saccharomyces cerevisiae. The note with it: 80% inhibition of yeast growth, 17 h, 30 °C, OD 655 nm.
Turning to `COc1ccc(O)c(C(C)(C)C)c1` [BHA, butylated hydroxy anisole], the “log 1/IC80 Obsd” value was found to be 3.37.

Still in this data set, the particulars now being: Saccharomyces cerevisiae, 17 h.
Regarding `CCCCCCCCCc1ccc(O)cc1` [4-(CH2)8CH3, 4-nonylphenol], the IC50 is 20 µM.

The same data set, now with this note: Saccharomyces cerevisiae, 17 h, read-out: log 1/IC50 Obsd (converted).
On to `CCCCCCCCCc1ccc(O)cc1` [4-(CH2)8CH3, 4-nonylphenol], for which the IC50 is 20 µM.

Consider `O=[N+]([O-])c1ccc(O)cc1` [4-NO2, 4-nitrophenol], for which the IC50 is 603 µM.

Regarding `CCCOc1ccc(O)cc1` [4-OC3H7, 4-propoxyphenol], the IC50 was 1820 µM.

Regarding `Oc1ccc(F)cc1` [4-F, 4-fluorophenol], the IC50 was 4790 µM.

Take `CCCCOc1ccc(O)cc1` [4-OC4H9, 4-butoxyphenol]: the IC50 is 525 µM.

As to `Oc1ccc(Cl)cc1` [4-Cl, 4-chlorophenol], the IC50 is 1350 µM.

`Oc1ccccc1O` [2-OH (catechol), catechol]: the IC50 was 2240 µM.

In the case of `N#Cc1ccc(O)cc1` [4-CN, 4-cyanophenol], the IC50 was 3020 µM.

With `CCOc1ccc(O)cc1` [4-OC2H5, 4-ethoxyphenol], the IC50 was 6760 µM.

With `Oc1ccc(Br)cc1` [4-Br, 4-bromophenol], the IC50 is 832 µM.

For `COc1ccc(O)c(C(C)(C)C)c1` [2-C(CH3)3,4-OCH3, 2-tert-butyl-4-methoxy-phenol], the IC50 is 288 µM.

As for `COc1ccc(O)cc1` [4-OCH3, 4-methoxyphenol], the IC50 is 10500 µM.

Regarding `CC(C)(c1ccc(O)cc1)c1ccc(O)cc1` [bisphenol-A, bisphenol A], the IC50 is 676 µM.

Consider `Oc1ccc(O)cc1` [4-OH, hydroquinone], for which the IC50 is 27500 µM.

In the case of `Cc1cc(C(C)(C)C)c(O)c(C(C)(C)C)c1` [BHT, 2,6-di-tert-butyl-4-methyl-phenol], the IC50 was 132 µM.

As to `COc1ccc(O)cc1C(C)(C)C` [3-C(CH3)3,4-OCH3, 3-tert-butyl-4-methoxy-phenol], the IC50 was 380 µM.

With `CCCCCc1ccc(O)cc1` [4-(CH2)4CH3, 4-pentylphenol], the IC50 is 89.1 µM.

For the compound `Oc1ccccc1` [4-H, phenol], the IC50 was 11000 µM.

The data set is the same for the next values; noted with them: Saccharomyces cerevisiae, 17 h, read-out: log 1/IC80 Obsd (converted).
For the compound `CCCCCCCCCc1ccc(O)cc1` [4-(CH2)8CH3, 4-nonylphenol], the IC80 is 39.8 µM.

`O=[N+]([O-])c1ccc(O)cc1` [4-NO2, 4-nitrophenol]: the IC80 was 813 µM.

As to `CCCOc1ccc(O)cc1` [4-OC3H7, 4-propoxyphenol], the IC80 was 2240 µM.

On to `Oc1ccc(F)cc1` [4-F, 4-fluorophenol], for which the IC80 was 6170 µM.

For the compound `CCCCOc1ccc(O)cc1` [4-OC4H9, 4-butoxyphenol], the IC80 is 692 µM.

As for `Oc1ccc(Cl)cc1` [4-Cl, 4-chlorophenol], the IC80 was 1660 µM.

For `Oc1ccccc1O` [2-OH (catechol), catechol], the IC80 was 3390 µM.

For `N#Cc1ccc(O)cc1` [4-CN, 4-cyanophenol], the IC80 is 5500 µM.

As for `CCOc1ccc(O)cc1` [4-OC2H5, 4-ethoxyphenol], the IC80 was 7940 µM.

With `Oc1ccc(Br)cc1` [4-Br, 4-bromophenol], the IC80 is 1100 µM.

Turning to `COc1ccc(O)c(C(C)(C)C)c1` [2-C(CH3)3,4-OCH3, 2-tert-butyl-4-methoxy-phenol], the IC80 was 407 µM.

In the case of `COc1ccc(O)cc1` [4-OCH3, 4-methoxyphenol], the IC80 is 12300 µM.

Take `CC(C)(c1ccc(O)cc1)c1ccc(O)cc1` [bisphenol-A, bisphenol A]: the IC80 was 813 µM.

As to `Oc1ccc(O)cc1` [4-OH, hydroquinone], the IC80 is 40700 µM.

In the case of `Cc1cc(C(C)(C)C)c(O)c(C(C)(C)C)c1` [BHT, 2,6-di-tert-butyl-4-methyl-phenol], the IC80 is 251 µM.

As for `COc1ccc(O)cc1C(C)(C)C` [3-C(CH3)3,4-OCH3, 3-tert-butyl-4-methoxy-phenol], the IC80 was 490 µM.

Consider `CCCCCc1ccc(O)cc1` [4-(CH2)4CH3, 4-pentylphenol], for which the IC80 was 110 µM.

For the compound `Oc1ccccc1` [4-H, phenol], the IC80 is 14100 µM.

Still in this data set, the particulars now being: Saccharomyces cerevisiae, read-out: growth inhibition.
The term inhibition denotes how much of the control response was suppressed. Turning to `CCCCCCCCCCCCc1ccc(O)cc1` [4-dodecylphenol], the inhibition at 350 µM stood at 40%.

Staying with this data set, now noted: inhibition of yeast growth, 17 h, 30 °C, OD 655 nm.
Regarding `COc1ccc(O)c(C(C)(C)C)c1` [BHA, butylated hydroxy anisole], the “log 1/IC50 Obsd” value turned out to be 3.72.

The next data set has as its system yeast.
Test: not given
The note with it: aniline metabolites in yeast; cited from earlier work.
`CC(=O)Nc1ccc(O)cc1` [4-acetamidophenol]: the “increase in deletion frequencies in words” value is “did not show a significant increase”.

A further data set has as its system S. cerevisiae. The experiment in a line: DEL. The note with it: DEL assay, IC80 concentration.
For the compound `COc1ccc(O)c(C(C)(C)C)c1` [BHA, butylated hydroxy anisole], the “deletion formation / genotoxicity in words” value is reported as “significant increase in deletion events”.

The same data set, now with this note: DEL assay, IC80 concentration; listed as BHA-3.
As for `COc1ccc(O)cc1C(C)(C)C` [3-C(CH3)3,4-OCH3, 3-tert-butyl-4-methoxy-phenol], the “deletion formation / genotoxicity in words” value was “do not increase the deletion formation”.

Still in this data set, the particulars now being: IC80 concentration, 17 h, DEL(URA3) strain, average of three samples.
Take `CCCCCCCCCc1ccc(O)cc1` [4-(CH2)8CH3, 4-nonylphenol]: the “Induction of deletion, fold increase over untreated control, Obsd” value (from here on “Induction of deletion, fold increase”) is on record as 2.58 fold.

On to `Oc1ccc(F)cc1` [4-F, 4-fluorophenol], for which the “Induction of deletion, fold increase” value worked out at 2.03 fold.

In the case of `Oc1ccc(Cl)cc1` [4-Cl, 4-chlorophenol], the “Induction of deletion, fold increase” value is given as 1.85 fold.

As to `Oc1ccccc1O` [2-OH (catechol), catechol], the “Induction of deletion, fold increase” value stood at 2.26 fold.

Take `N#Cc1ccc(O)cc1` [4-CN, 4-cyanophenol]: the “Induction of deletion, fold increase” value is given as 1.25 fold.

`COc1ccc(O)c(C(C)(C)C)c1` [2-C(CH3)3,4-OCH3, 2-tert-butyl-4-methoxy-phenol]: the “Induction of deletion, fold increase” value is reported as 2.57 fold.

`COc1ccc(O)cc1` [4-OCH3, 4-methoxyphenol]: the “Induction of deletion, fold increase” value is listed as 2.01 fold.

Regarding `Oc1ccc(O)cc1` [4-OH, hydroquinone], the “Induction of deletion, fold increase” value came out at 2.25 fold.

For the compound `COc1ccc(O)cc1C(C)(C)C` [3-C(CH3)3,4-OCH3, 3-tert-butyl-4-methoxy-phenol], the “Induction of deletion, fold increase” value was 1.17 fold.

Take `Oc1ccccc1` [4-H, phenol]: the “Induction of deletion, fold increase” value worked out at 2.27 fold.

The same data set, now with this note: IC80 concentration, 17 h, DEL(URA3) strain, average of three samples; listed as BHA-2.
With `COc1ccc(O)c(C(C)(C)C)c1` [2-C(CH3)3,4-OCH3, 2-tert-butyl-4-methoxy-phenol], the “Induction of deletion, fold increase” value is “greater than 2 fold”.
